Measurements: publication PMC8507260, “A2E-induced inflammation and angiogenesis in RPE cells in vitro are modulated by PPAR-α, -β/δ, -γ, and RXR antagonists and by norbixin” (Aging (Albany NY), 2021)
pIC50, pKd: −log10 of the molar value.

Experiments:
[1] = biological target: T1, RXR-α (Homo sapiens, UniProt P19793); assay: Competition binding to RXR-α against [3H]9-cis-retinoic acid (Eurofins Cerep); conditions: for pIC50 / pKd: competition with [3H]9-cis-retinoic acid
T1 construct: Eurofins Cerep (contract laboratory that ran the assay)
T1 sequence (P19793 1-462): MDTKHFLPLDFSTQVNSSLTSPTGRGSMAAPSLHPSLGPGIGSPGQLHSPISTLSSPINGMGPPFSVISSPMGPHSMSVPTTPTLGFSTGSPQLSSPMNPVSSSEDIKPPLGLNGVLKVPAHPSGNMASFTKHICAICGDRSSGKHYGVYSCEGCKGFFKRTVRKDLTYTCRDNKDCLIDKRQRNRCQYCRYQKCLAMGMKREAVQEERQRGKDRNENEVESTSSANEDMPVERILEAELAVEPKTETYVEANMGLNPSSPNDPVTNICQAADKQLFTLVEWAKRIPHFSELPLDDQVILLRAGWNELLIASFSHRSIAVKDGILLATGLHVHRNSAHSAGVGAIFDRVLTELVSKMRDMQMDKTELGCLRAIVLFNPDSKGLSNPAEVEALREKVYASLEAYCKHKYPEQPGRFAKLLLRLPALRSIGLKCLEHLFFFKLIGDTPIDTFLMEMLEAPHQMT
Description: To confirm this hypothesis, we tested by competition experiments whether A2E and norbixin could bind to RXR-α. […] In similar transactivation experiments, we tested the activity of norbixin alone or added to A2E on RXR transactivation.
(§1) Binding studies of A2E and norbixin to RXR-α and PPAR-α and γ were performed in vitro by an external laboratory (Eurofins Cerep, Celle L’Evescault, France) through competition experiments between A2E or norbixin and [^3H]9-cis-retinoic acid as the natural ligand of RXR-α, [^3H]GW7647 an agonist of PPAR-α and [^3H]Rosiglitazone an agonist of PPAR-γ.

[2] = tested on: VEGF; assay: VEGF mRNA expression by quantitative RT-PCR in porcine RPE cells; format: cell-based
Description: (§2) Pig eyes were obtained from a local slaughterhouse and transported to the laboratory in ice-cold Ringer solution. After removal of the anterior segment of the eye, the vitreous and neural retina was separated from the RPE and removed. The eyecup was washed twice with phosphate buffer saline (PBS), filled with trypsin (0.25% in PBS) and incubated at 37°C for 1.5 h. RPE cells were harvested by gently pipetting, centrifuged to remove trypsin and re-suspended in Dulbecco’s Modified Eagle Medium (DMEM) supplemented with 20% (v/v) foetal-calf serum (DMEM20%FCS) and 0.1% gentamycin. Cells were seeded into 60 mm diameter Petri dishes, cultured in an atmosphere of 5% CO2/95% air at 37°C, and supplied with fresh medium after 24 hours and 4 days in vitro. For experiments aimed at measuring mRNA or protein expression in RPE, cells were trypsinized after one week in culture and transferred to 24-well or 6-well plates at a density of 1.5 × 10^5 cells/cm^2 in DMEM2%FCS. Norbixin or agonists were added to the medium 24 h after seeding, and antagonists were added to the medium 24 h later. A2E treatment was performed during 19 h before cellular sample preparation. All the drugs used in these experiments were prepared as stock solutions in DMSO.
Total RNA was extracted using the NucleoSpin® RNA kit according to manufacturer’s instructions. RT of 500 ng of RNA was performed using the SuperScript III Reverse Transcriptase following the manufacturer’s instructions. Five ng of cDNA were amplified using the SYBR GREEN real-time PCR method. PCR primers for target genes and housekeeping gene GAPDH were designed using Primer3Plus Bioinformatic software (Table 2). The RT-PCR using the StepOne Plus (Life Technologies, Carlsbad, CA, USA) consisted of incubation at 50°C for 5 min followed by 40 cycles of 95°C for 15 s and of 60°C for 1 min. The reaction was completed by a melt curve stage at 95°C for 15 s, 60°C for 1 min, 95°C for 15 s and a final step at 60°C for 15 s. The relative mRNA expression was calculated using the comparative threshold method (Ct-method) with GAPDH for normalization. […]

[3] = tested on: AKT; assay: AKT phosphorylation by western blot in primary porcine RPE cells; format: cell-based
Description: as §2, with “Norbixin or agonists were added to the medium 24 h after seeding, and antagonists were added to the medium 24 h later. A2E treatment was performed during 19 h before cellular sample preparation. All the drugs used in these experiments were prepared as stock solutions in DMSO.” left out
RPE samples were lysed in 20 mM Tris-HCl, 150 mM NaCl, 1 mM EDTA, 1% NP-40, pH 7.5 buffer containing a cocktail of protease and phosphatase inhibitors. […] The signal was developed using enhanced chemiluminescence reagents (ECL) prime detection kit, quantified by densitometry using Bio1D (Vilber Lourmat, Germany) and normalized by GAPDH levels. […]

[4] = biological target: T2, PPAR-γ (Homo sapiens, UniProt P37231); assay: Competition binding to PPAR-γ against [3H]rosiglitazone (Eurofins Cerep); parameters: Eurofins Cerep (contract laboratory that ran the assay); conditions: competition with [3H]rosiglitazone
T2 sequence (P37231 1-505): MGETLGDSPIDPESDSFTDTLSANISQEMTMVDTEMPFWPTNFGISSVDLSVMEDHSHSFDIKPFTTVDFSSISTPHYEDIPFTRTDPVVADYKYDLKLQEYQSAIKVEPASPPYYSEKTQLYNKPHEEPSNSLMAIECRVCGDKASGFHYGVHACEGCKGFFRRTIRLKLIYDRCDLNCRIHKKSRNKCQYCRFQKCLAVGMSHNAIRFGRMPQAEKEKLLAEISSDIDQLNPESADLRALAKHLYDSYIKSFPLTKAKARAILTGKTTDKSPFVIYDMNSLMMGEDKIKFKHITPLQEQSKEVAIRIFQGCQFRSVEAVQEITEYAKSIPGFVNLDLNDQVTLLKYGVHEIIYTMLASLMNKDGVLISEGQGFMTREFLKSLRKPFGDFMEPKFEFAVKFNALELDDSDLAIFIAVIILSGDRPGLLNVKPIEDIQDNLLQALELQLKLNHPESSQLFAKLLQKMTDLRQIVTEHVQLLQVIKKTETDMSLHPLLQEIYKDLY
Text: The binding and activity of norbixin on PPARs remains controversial, thus, firstly, we performed competition experiments in vitro between norbixin and [^3H] GW7647, an agonist of PPAR-α, and [^3H] rosiglitazone, an agonist of PPAR-γ. […] Secondly, we tested whether norbixin could induce the transactivation of PPAR-α, -β/δ or -γ in the context of RPE cells in vitro by co-transfecting porcine RPE cells with a plasmid expressing each of the full-length PPAR isoforms and a plasmid expressing luciferase under the control of the PPAR response element. […] Then, we wanted to determine if norbixin could modulate the transactivation of PPAR isoforms induced by specific agonists.
as §1

Row | SMILES | pIC50 [1] | pKd [1] | effect on VEGF mRNA expression induced by A2E ([2]; NBX 20 μM with A2E 30 μM, MK886 1 μM, GSK3787 1 μM, T007907 10 μM, alone or as mixture, with A2E 20 μM) | effect on the increase of AKT phosphorylation induced by A2E ([3]; NBX 20 μM + A2E 30 μM) | pIC50 [4] | pKd [4] | binding affinity of A2E for RXR-α relative to norbixin (higher) ([1]; ratio of KDs) [fold] | enhancement of VEGF mRNA expression by the compound alone ([2]; A2E 30 μM vs DMSO control) | effect of the compound alone on AKT phosphorylation ([3]; A2E 30 μM vs DMSO control)
1 | CC(/C=C/C=C(C)/C=C/C(=O)O)=C\C=C\C=C(C)\C=C\C=C(C)\C=C\C(=O)O (stereo in doubt) [norbixin, 9’-cis-norbixin] | 4.19 | 4.34 | significantly inhibited | abrogated completely | 5.72 | 6.00 |  |  | 
2 | CC(C=CC1=C(C)CCCC1(C)C)=CC=CC(C)=Cc1cc(C=CC=C(C)C=CC2=C(C)CCCC2(C)C)cc[n+]1CCO [A2E, N-retinylidene-N-retinylethanolamine] | 5.21 | 5.37 |  |  | 4.59 | 4.85 | 10 | approximately 9 fold | induced the phosphorylation
